Reference: patent US20190185518A9, “WARHEAD-CONTAINING PEPTIDOMIMETIC MACROCYCLES AS MODULATORS OF BFL-1” (AILERON Therapeutics, Inc., priority 2017, published 2019)
Positions of bridges follow the written chain, without caps; N, C: chain ends. Non-standard residues stand in square brackets, D forms with d. Residues, ends and D or L forms follow the SMILES beside them. Phe(4-CF3) = N[C@@H](Cc1ccc(C(F)(F)F)cc1)C(=O)O; Bip = N[C@@H](Cc1ccc(-c2ccccc2)cc1)C(=O)O; Igl = N[C@H](C(=O)O)C1Cc2ccccc2C1; hPhe = N[C@@H](CCc1ccccc1)C(=O)O; R8 = C=CCCCCCC[C@@](C)(N)C(=O)O; Cit = NC(=O)NCCC[C@H](N)C(=O)O; Chg = N[C@H](C(=O)O)C1CCCCC1; S5 = C=CCCC[C@](C)(N)C(=O)O; Aib = CC(C)(N)C(=O)O

Tests used:
Bcl-2 = Bcl-2 (Homo sapiens, UniProt P10415); assay: Ki determination for Bcl-2 (BCL-2 family binding spectrum); settings: read-out: Ki BCL-2
Excerpt: To assess the binding and affinity of compounds that antagonize the interaction between a peptide and an acceptor protein, a fluorescence polarization assay (FPA) utilizing a fluoresceinated peptidomimetic macrocycle derived from a peptidomimetic precursor sequence is used, for example. The FPA technique measures the molecular orientation and mobility using polarized light and fluorescent tracer. […] A compound that antagonizes the interaction between the fluoresceinated peptidomimetic macrocycle and an acceptor protein will be detected in a competitive binding FPA experiment.
For example, putative antagonist compounds (1 nM to 1 mM) and a fluoresceinated peptidomimetic macrocycle (25 nM) are incubated with the acceptor protein (50 nM) in binding buffer (140 mM NaCl, 50 mM Tris-HCL, pH 7.4) for 30 minutes at room temperature. Antagonist binding activity is measured, for example, by fluorescence polarization on a luminescence spectrophotometer (e.g. Perkin-Elmer LS50B). Kd values may be determined by nonlinear regression analysis using, for example, Graphpad Prism software (GraphPad Software, Inc., San Diego, Calif.).

Mcl-1 = Mcl-1 (Homo sapiens, UniProt Q07820); assay: Ki determination for Mcl-1 (BCL-2 family binding spectrum); settings: read-out: Ki MCL-1
Summary of the method: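 Competitive fluorescence polarization assay in which compounds displace a fluoresceinated peptidomimetic macrocycle tracer from Mcl-1. Affinity constants were obtained by nonlinear regression.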

Bcl-2, sequence (P10415 whole entry, species assumed): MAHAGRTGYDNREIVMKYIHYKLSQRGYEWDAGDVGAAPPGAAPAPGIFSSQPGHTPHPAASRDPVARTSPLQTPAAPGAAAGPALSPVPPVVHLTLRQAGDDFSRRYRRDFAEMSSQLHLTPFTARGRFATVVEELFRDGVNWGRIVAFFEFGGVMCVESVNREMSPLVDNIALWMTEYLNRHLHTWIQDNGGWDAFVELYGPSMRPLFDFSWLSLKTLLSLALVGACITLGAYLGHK
Mcl-1, sequence (Q07820 whole entry, species assumed): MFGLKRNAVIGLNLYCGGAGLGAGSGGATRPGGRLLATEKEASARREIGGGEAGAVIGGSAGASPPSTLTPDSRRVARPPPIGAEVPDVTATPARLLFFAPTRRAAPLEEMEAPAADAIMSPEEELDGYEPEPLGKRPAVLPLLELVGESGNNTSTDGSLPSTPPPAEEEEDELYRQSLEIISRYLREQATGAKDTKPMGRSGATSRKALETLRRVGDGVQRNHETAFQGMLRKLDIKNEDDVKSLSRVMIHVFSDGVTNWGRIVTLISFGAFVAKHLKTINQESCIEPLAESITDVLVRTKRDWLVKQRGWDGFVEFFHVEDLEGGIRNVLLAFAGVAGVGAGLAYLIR

Row | SMILES | Ki (Bcl-2) | Ki (Mcl-1)
1 | CC[C@H](C)[C@H](NC(C)=O)C(=O)N[C@@H](Cc1c[nH]c2ccccc12)C(=O)N[C@H](C(=O)N[C@@H](C)C(=O)N[C@@H](CCC(N)=O)C(=O)N[C@@H](C)C(=O)N[C@@H](CC(C)C)C(=O)N[C@@H](CCCNC(N)=O)C(=O)N[C@]1(C)CCCCCCC=CCCC[C@@](C)(C(=O)N[C@@H](Cc2ccc(O)cc2)C(=O)N[C@@H](Cc2ccc(O)cc2)C(=O)N[C@@H](C)C(N)=O)NC(=O)[C@H](CC(N)=O)NC(=O)[C@H](Cc2ccccc2)NC(=O)[C@H](C)NC(=O)[C@H](CC(=O)O)NC(=O)CNC(=O)[C@H]([C@@H](C)CC)NC1=O)[C@@H](C)CC [compound 1655] (Ac-IWIAQAL[Cit][R8]IGDAFN[S5]YYA-NH2; staple 9-16) | 212 nM | 7.5 nM
2 | CC[C@H](C)[C@H](NC(C)=O)C(=O)N[C@@H](Cc1c[nH]c2ccccc12)C(=O)N[C@@H](Cc1ccc(-c2ccccc2)cc1)C(=O)N[C@@H](C)C(=O)N[C@@H](CCC(N)=O)C(=O)N[C@@H](C)C(=O)N[C@@H](CC(C)C)C(=O)N[C@@H](CCCNC(=N)N)C(=O)N[C@]1(C)CCCCCCC=CCCC[C@@](C)(C(=O)N[C@@H](Cc2ccc(O)cc2)C(=O)N[C@@H](Cc2ccc(O)cc2)C(=O)N[C@@H](C)C(N)=O)NC(=O)[C@H](CC(N)=O)NC(=O)[C@H](Cc2ccccc2)NC(=O)[C@H](C)NC(=O)[C@H](CC(=O)O)NC(=O)CNC(=O)[C@H]([C@@H](C)CC)NC1=O [compound 1686] (Ac-IW[Bip]AQALR[R8]IGDAFN[S5]YYA-NH2; staple 9-16) | > 1000 nM | 11 nM
3 | CC[C@H](C)[C@H](NC(C)=O)C(=O)N[C@@H](Cc1c[nH]c2ccccc12)C(=O)N[C@H](C(=O)N[C@@H](C)C(=O)N[C@@H](CCC(N)=O)C(=O)N[C@@H](C)C(=O)N[C@H](C(=O)N[C@@H](CCCNC(=N)N)C(=O)N[C@]1(C)CCCCCC/C=C\CCC[C@@](C)(C(=O)N[C@@H](Cc2ccc(O)cc2)C(=O)N[C@@H](Cc2ccc(O)cc2)C(=O)N[C@@H](C)C(N)=O)NC(=O)[C@H](CC(N)=O)NC(=O)[C@H](Cc2ccccc2)NC(=O)[C@H](C)NC(=O)[C@H](CC(=O)O)NC(=O)CNC(=O)[C@H]([C@@H](C)CC)NC1=O)C1Cc2ccccc2C1)[C@@H](C)CC [compound 1693] (Ac-IWIAQA[Igl]R[R8]IGDAFN[S5]YYA-NH2; staple (Z) 9-16) | > 1000 nM | 
4 | CC[C@H](C)[C@H](NC(C)=O)C(=O)N[C@@H](Cc1c[nH]c2ccccc12)C(=O)N[C@H](C(=O)N[C@@H](C)C(=O)N[C@@H](CCC(N)=O)C(=O)N[C@@H](C)C(=O)N[C@@H](Cc1ccc(C(F)(F)F)cc1)C(=O)N[C@@H](CCCNC(=N)N)C(=O)N[C@]1(C)CCCCCCC=CCCC[C@@](C)(C(=O)N[C@@H](Cc2ccc(O)cc2)C(=O)N[C@@H](Cc2ccc(O)cc2)C(=O)N[C@@H](C)C(N)=O)NC(=O)[C@H](CC(N)=O)NC(=O)[C@H](Cc2ccccc2)NC(=O)[C@H](C)NC(=O)[C@H](CC(=O)O)NC(=O)CNC(=O)[C@H]([C@@H](C)CC)NC1=O)[C@@H](C)CC [compound 1694] (Ac-IWIAQA[Phe(4-CF3)]R[R8]IGDAFN[S5]YYA-NH2; staple 9-16) | > 1000 nM | 
5 | CC[C@H](C)[C@H](NC(C)=O)C(=O)N[C@@H](Cc1c[nH]c2ccccc12)C(=O)N[C@H](C(=O)N[C@@H](C)C(=O)NC(C)(C)C(=O)N[C@@H](C)C(=O)N[C@@H](CC(C)C)C(=O)N[C@@H](CCCNC(=N)N)C(=O)N[C@]1(C)CCCCCCC=CCCC[C@@](C)(C(=O)N[C@@H](Cc2ccc(O)cc2)C(=O)N[C@@H](Cc2ccc(O)cc2)C(=O)N[C@@H](C)C(N)=O)NC(=O)[C@H](CC(N)=O)NC(=O)[C@H](Cc2ccccc2)NC(=O)[C@H](C)NC(=O)[C@H](CC(=O)O)NC(=O)CNC(=O)[C@H]([C@@H](C)CC)NC1=O)[C@@H](C)CC [compound 1708] (Ac-IWIA[Aib]ALR[R8]IGDAFN[S5]YYA-NH2; staple 9-16) | 120 nM | 
6 | CC[C@H](C)[C@H](NC(C)=O)C(=O)N[C@@H](Cc1c[nH]c2ccccc12)C(=O)N[C@H](C(=O)N[C@@H](C)C(=O)N[C@@H](CCC(N)=O)C(=O)N[C@@H](C)C(=O)N[C@@H](CC(C)C)C(=O)N[C@@H](CCCNC(=N)N)C(=O)N[C@]1(C)CCCCCCC=CCCC[C@@](C)(C(=O)N[C@@H](Cc2ccc(O)cc2)C(=O)N[C@@H](Cc2ccc(O)cc2)C(=O)N[C@@H](C)C(N)=O)NC(=O)[C@H](CC(N)=O)NC(=O)[C@H](Cc2ccccc2)NC(=O)[C@H](C)NC(=O)[C@H](CC(=O)O)NC(=O)CNC(=O)[C@H]([C@@H](C)CC)NC1=O)C1CCCCC1 [compound 1713] (Ac-IW[Chg]AQALR[R8]IGDAFN[S5]YYA-NH2; staple 9-16) | 38.9 nM | 4.6 nM
7 | CC[C@H](C)[C@H](NC(C)=O)C(=O)N[C@@H](Cc1c[nH]c2ccccc12)C(=O)N[C@H](C(=O)N[C@@H](C)C(=O)N[C@@H](C)C(=O)N[C@@H](C)C(=O)N[C@@H](CC(C)C)C(=O)N[C@@H](CCCCN)C(=O)N[C@]1(C)CCCCCCC=CCCC[C@@](C)(C(=O)N[C@@H](Cc2ccc(O)cc2)C(=O)N[C@@H](Cc2ccc(O)cc2)C(=O)N[C@@H](C)C(N)=O)NC(=O)[C@H](CC(N)=O)NC(=O)[C@H](Cc2ccccc2)NC(=O)[C@H](C)NC(=O)[C@H](CC(=O)O)NC(=O)CNC(=O)[C@H]([C@@H](C)CC)NC1=O)[C@@H](C)CC [compound 1737] (Ac-IWIAAALK[R8]IGDAFN[S5]YYA-NH2; staple 9-16) | 25.6 nM | 
8 | CC[C@H](C)[C@H](NC(C)=O)C(=O)N[C@@H](Cc1c[nH]c2ccccc12)C(=O)N[C@H](C(=O)N[C@@H](C)C(=O)N[C@@H](C)C(=O)N[C@@H](C)C(=O)N[C@@H](CC(C)C)C(=O)N[C@@H](CCCNC(=N)N)C(=O)N[C@]1(C)CCCCCCC=CCCC[C@@](C)(C(=O)N[C@@H](Cc2ccc(O)cc2)C(=O)N[C@@H](Cc2ccc(O)cc2)C(=O)N[C@@H](C)C(N)=O)NC(=O)[C@H](CC(N)=O)NC(=O)[C@H](Cc2ccccc2)NC(=O)[C@H](C)NC(=O)[C@H](CC(=O)O)NC(=O)[C@H](C(C)C)NC(=O)[C@H]([C@@H](C)CC)NC1=O)[C@@H](C)CC [compound 1739] (Ac-IWIAAALR[R8]IVDAFN[S5]YYA-NH2; staple 9-16) | 120 nM | 
9 | CC[C@H](C)[C@H](NC(C)=O)C(=O)N[C@@H](Cc1c[nH]c2ccccc12)C(=O)N[C@H](C(=O)N[C@@H](C)C(=O)N[C@@H](C)C(=O)N[C@@H](C)C(=O)N[C@@H](CC(C)C)C(=O)N[C@@H](CCCNC(=N)N)C(=O)N[C@]1(C)CCCCCCC=CCCC[C@@](C)(C(=O)N[C@@H](Cc2ccc(O)cc2)C(=O)N[C@@H](Cc2ccc(O)cc2)C(=O)N[C@@H](C)C(N)=O)NC(=O)[C@H](CC(N)=O)NC(=O)[C@H](Cc2ccccc2)NC(=O)[C@H](C)NC(=O)[C@H](CCC(=O)O)NC(=O)CNC(=O)[C@H]([C@@H](C)CC)NC1=O)[C@@H](C)CC [compound 1740] (Ac-IWIAAALR[R8]IGEAFN[S5]YYA-NH2; staple 9-16) | 142 nM | 
10 | CC[C@H](C)[C@H](NC(C)=O)C(=O)N[C@@H](Cc1c[nH]c2ccccc12)C(=O)N[C@H](C(=O)N[C@@H](C)C(=O)N[C@@H](CCC(N)=O)C(=O)N[C@@H](C)C(=O)N[C@@H](CC(C)C)C(=O)N[C@@H](CCCNC(=N)N)C(=O)N[C@]1(C)CCCCCCC=CCCC[C@@](C)(C(=O)N[C@@H](Cc2ccc(O)cc2)C(=O)N[C@@H](Cc2ccc(O)cc2)C(=O)N[C@@H](C)C(N)=O)NC(=O)[C@H](CC(N)=O)NC(=O)[C@H](CCc2ccccc2)NC(=O)[C@H](C)NC(=O)[C@H](CC(=O)O)NC(=O)CNC(=O)[C@H]([C@@H](C)CC)NC1=O)[C@@H](C)CC [compound 1743] (Ac-IWIAQALR[R8]IGDA[hPhe]N[S5]YYA-NH2; staple 9-16) | 38.9 nM | 2.7 nM
11 | CC[C@H](C)[C@H](NC(C)=O)C(=O)N[C@@H](Cc1c[nH]c2ccccc12)C(=O)N[C@H](C(=O)N[C@@H](C)C(=O)N[C@@H](C)C(=O)N[C@@H](C)C(=O)N[C@@H](CC(C)C)C(=O)N[C@@H](CCCNC(=N)N)C(=O)N[C@]1(C)CCCCCCC=CCCC[C@@](C)(C(=O)N[C@@H](CC(C)C)C(=O)N[C@@H](Cc2ccc(O)cc2)C(=O)N[C@@H](C)C(N)=O)NC(=O)[C@H](CC(N)=O)NC(=O)[C@H](Cc2ccccc2)NC(=O)[C@H](C)NC(=O)[C@H](CC(=O)O)NC(=O)CNC(=O)[C@H]([C@@H](C)CC)NC1=O)[C@@H](C)CC [compound 1753] (Ac-IWIAAALR[R8]IGDAFN[S5]LYA-NH2; staple 9-16) | 125 nM | 
12 | CC[C@H](C)[C@H](NC(C)=O)C(=O)N[C@@H](Cc1c[nH]c2ccccc12)C(=O)N[C@H](C(=O)N[C@@H](C)C(=O)N[C@@H](C)C(=O)N[C@@H](C)C(=O)N[C@@H](CC(C)C)C(=O)N[C@@H](CCCNC(=N)N)C(=O)N[C@]1(C)CCCCCCC=CCCC[C@@](C)(C(=O)N[C@@H](Cc2ccc(O)cc2)C(=O)N[C@@H](Cc2ccc(O)cc2)C(=O)N[C@@H](CCCNC(=N)N)C(N)=O)NC(=O)[C@H](CC(N)=O)NC(=O)[C@H](Cc2ccccc2)NC(=O)[C@H](C)NC(=O)[C@H](CC(=O)O)NC(=O)CNC(=O)[C@H]([C@@H](C)CC)NC1=O)[C@@H](C)CC [compound 1765] (Ac-IWIAAALR[R8]IGDAFN[S5]YYR-NH2; staple 9-16) | 142 nM | 
13 | CC[C@H](C)[C@H](NC(C)=O)C(=O)N[C@]1(C)CCCCCCC=CCCCC2(CCCC=CCCCCCC[C@@](C)(C(=O)N[C@@H](Cc3ccc(O)cc3)C(=O)N[C@@H](Cc3ccc(O)cc3)C(=O)N[C@@H](C)C(N)=O)NC(=O)[C@H](CC(N)=O)NC(=O)[C@H](Cc3ccccc3)NC(=O)[C@H](CCC(=O)O)NC(=O)[C@H](CC(=O)O)NC(=O)CNC(=O)[C@H]([C@@H](C)CC)NC2=O)NC(=O)[C@H](CCCNC(=N)N)NC(=O)[C@H](CC(C)C)NC(=O)[C@H](C)NC(=O)[C@H](CCC(N)=O)NC(=O)[C@H](C)NC(=O)[C@H]([C@@H](C)CC)NC1=O (some centres unmarked) [compound 1782] | 22 nM | 
